pIC50: −log10 of the molar value. Counter-ions that a name gives are not always drawn. Like-named read-outs stand apart in the source and are kept apart here.
Legend:
[1] = molecular target: T1, Human erythrocyte acetylcholinesterase (Homo sapiens, UniProt P22303); assay: In vitro measurement of acetylcholinesterase (AChE) inhibition (Ellman method); type: biochemical; settings: at time of peak activity, incubation 15 to 60 minutes at 37°C
T1 construct: Human erythrocyte acetylcholinesterase (type XIII, Sigma Israel); purchased Sigma Israel type XIII; host or cells: human erythrocytes
Method: Human erythrocyte acetylcholinesterase (type XIII, Sigma Israel), was prepared in a stock solution of 1U/ml, containing Triton (1%) and bovine serum albumin (0.05%) in phosphate buffer (pH 8). The enzyme (0.05U) was incubated with 3-5 different concentrations of test compound (in triplicate) for periods of from 15 to 60 minutes at 37°C. […] The percentage inhibition of AChE by each concentration of drug is calculated by comparison with that of enzyme in the absence of drug.

[2] = test system: MAO-B; assay: Inhibition of MAO activity ex vivo (brain tissue), PEA substrate; type: in vivo, mice; settings: mouse brain tissue
Method: (§1) Male Sabra mice, weighing 45-50g were injected with test compound solutions (prepared in 0.9% saline). Each dose was administered to two or three mice. The mice were sacrificed two hours after drug administration or at a time corresponding to the peak AChE inhibition time (see Table 6). The brain and liver were rapidly dissected and stored in appropriate vials on ice. The tissues were weighed, diluted to 1/20 in sucrose 0.3M and stored at -20°C before performance of the MAO assay described above. The results given in Table 6 relate to measurements made on brain tissue only.

[3] = test system: mice; assay: Survival time of mice in hypobaric hypoxic episode; type: in vivo
Text: The model is based on that described in Nakanishi, M. et al. Life Sci. (1973) 13: 467; Oshiro, et al., J. Med. Chem. (1991) 34: 2004-2013; and US Patent 4,788,130.
A 12 liter desiccator (desiccator A) and a 2.5 liter desiccator (desiccator B) were separately connected to a vacuum pump. Desiccator B was disconnected and allowed to equilibrate with room air whilst desiccator A was evacuated to a pressure of 100mmHg. Four male ICR albino mice (22-28g) were placed in desiccator B. Desiccator B was then closed to room air and connected to desiccator A. The pressure inside desiccator B was monitored using a mercury manometer and at the point the pressure in desiccator B reached 200mmHg (usually within 14 seconds), the two desiccators were disconnected from the vacuum pump and the pump switched off. The survival time from the moment of induction of hypoxia to the time of cessation of respiration was recorded. for each mouse for a maximum of 15 minutes after which time room air was reintroduced to desiccator B. Survivors were monitored for signs of lethargy or vitality.
Effect of drug treatment was assessed as the percent of the survival time of the drug treated group with respect to the saline injected or vehicle injected control group. Control groups were run twice, before and after each experimental group and consisted of 8 mice in groups of 4 mice to ensure a constant residual volume of oxygen in all tests. The effect of each dose of test drug was determined in duplicate i.e. two groups of 4 mice.
Positive reference drugs were sodium pentobarbital at a dose of 40 mg/kg, and diazepam 10 mg/kg given 0.5h prior to hypoxia, physostigmine 0.2 and 0.4 mg/kg and neostigmine 0.2 mg/kg given sc 30 min before hypoxia. Methyl atropine 1 mg/kg was given sc. 10 min. before physostigmine.
The volume of injection was 0.2-0.3 mL per mouse (10 mL/kg). The initial dose was about one third of the reported LD50 for acetylcholine esterase inhibition. If no protection could be obtained, the dose was further increased to the nearest non-toxic dose. In case of protection, the dose was further reduced in an attempt to locate the "protective" dose range.

[4] = molecular target: T2, MAO-A (Rattus norvegicus, UniProt P21396); assay: Inhibition of MAO activity in vitro, rat brain homogenate, 5-HT substrate
T2 sequence (P21396 1-526): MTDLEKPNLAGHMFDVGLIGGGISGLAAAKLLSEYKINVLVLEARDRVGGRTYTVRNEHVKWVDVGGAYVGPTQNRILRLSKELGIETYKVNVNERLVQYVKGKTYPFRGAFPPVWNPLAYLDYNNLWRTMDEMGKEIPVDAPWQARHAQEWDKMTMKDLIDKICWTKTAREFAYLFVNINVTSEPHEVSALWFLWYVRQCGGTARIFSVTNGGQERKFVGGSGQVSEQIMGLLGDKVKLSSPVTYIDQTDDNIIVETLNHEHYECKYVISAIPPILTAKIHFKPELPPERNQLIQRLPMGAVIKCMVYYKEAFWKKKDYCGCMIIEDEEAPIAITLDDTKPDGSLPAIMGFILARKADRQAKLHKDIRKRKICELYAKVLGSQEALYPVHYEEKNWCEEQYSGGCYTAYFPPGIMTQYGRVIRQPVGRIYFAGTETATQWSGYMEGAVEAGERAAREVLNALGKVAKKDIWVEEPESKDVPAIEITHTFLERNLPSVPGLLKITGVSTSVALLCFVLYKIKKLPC
Method: The MAO enzyme source was a homogenate of rat brain in 0.3M sucrose, which was centrifuged at 600G for 15 minutes. The supernatant was diluted appropriately in 0.05M phosphate buffer, and pre-incubated with serial dilutions of test compounds for 20 minutes at 37°C. ^14C-Labeled substrates (2-phenylethylamine, hereinafter PEA; 5-hydroxytryptamine, hereinafter 5-HT) were then added, and the incubation continued for a further 20 minutes (PEA), or 30-45 minutes (5-HT). Substrate concentrations used were 50µM (PEA) and 1mM (5-HT). In the case of PEA, enzyme concentration was chosen so that not more than 10% of the substrate was metabolized during the course of the reaction. The deaminated products were extracted into toluene-ethyl acetate (1:1, v/v) containing 0.6% (w/v) 2,5-diphenyloxazole prior to determination by liquid scintillation counting. Radioactivity in the eluate indicates the production of neutral and acidic metabolites formed as a result of MAO activity. Activity of MAO in the sample was expressed as a percentage of control activity in the absence of inhibitors after subtraction of appropriate blank values The activity determined using PEA as substrate is referred to as MAO-B, and that determined using 5-HT as MAO-A.

[5] = molecular target: T3, whole brain AChE (Mus musculus, UniProt P21836); assay: Ex vivo measurement of brain AChE inhibition after sub-cutaneous administration; type: in vivo, mice; settings: for ED50: sc, sub-cutaneous, mouse whole brain, at peak of activity, read-out: AChE Inhibition Ex vivo ED50 (AC)
T3 construct: the brains rapidly removed (minus cerebellum), weighed and homogenized in 0.1M phosphate buffer pH 8.0; from tissue; host or cells: mouse brain (minus cerebellum) homogenate supernatant
T3 sequence (P21836 32-614): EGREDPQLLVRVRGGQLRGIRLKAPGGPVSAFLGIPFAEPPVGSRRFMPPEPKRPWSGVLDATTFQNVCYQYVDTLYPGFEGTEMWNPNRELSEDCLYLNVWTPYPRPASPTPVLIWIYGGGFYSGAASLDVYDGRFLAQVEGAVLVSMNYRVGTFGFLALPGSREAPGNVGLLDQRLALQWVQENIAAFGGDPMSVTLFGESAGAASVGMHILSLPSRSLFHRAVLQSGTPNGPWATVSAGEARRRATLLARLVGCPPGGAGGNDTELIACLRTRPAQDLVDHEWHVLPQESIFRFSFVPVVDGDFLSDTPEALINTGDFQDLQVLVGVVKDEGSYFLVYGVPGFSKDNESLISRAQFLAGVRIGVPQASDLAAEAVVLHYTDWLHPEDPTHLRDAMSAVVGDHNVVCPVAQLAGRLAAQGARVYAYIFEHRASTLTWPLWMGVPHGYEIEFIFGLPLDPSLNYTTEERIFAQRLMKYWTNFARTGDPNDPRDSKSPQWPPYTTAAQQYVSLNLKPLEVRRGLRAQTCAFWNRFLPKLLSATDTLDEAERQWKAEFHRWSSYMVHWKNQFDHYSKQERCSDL
Method: Test drugs or saline were administered sub-cutaneously to male mice (Sabra strain, 28-35g). At least 4-5 mice were used per dose and a minimum of 3 doses per drug were tested. The mice were sacrificed 15, 30, 60, 70, 90, 120 or 180 minutes after drug administration, the brains rapidly removed (minus cerebellum), weighed and homogenized in 0.1M phosphate buffer pH 8.0, containing Triton (1mg/100g tissue) and centrifuged to remove cell debris. Aliquots (25 µl) of the supernatant were then incubated with acetylthiocholine and DTNB. AChE activity measured as described above. The % inhibition of whole brain AChE by each dose of drug was calculated by comparison with enzyme activity from 3 saline treated control mice run at the same time.

[6] = test system: MAO-A; assay: Inhibition of MAO activity ex vivo (brain tissue), 5-HT substrate; type: in vivo, mice; settings: mouse brain tissue
Method: as §1

[7] = Acute toxicity in mice (sub-cutaneous, lethality within 6 hours); settings: mouse, in vivo, sc; for selectivity ratio: LD50 divided by ED50 (acetylcholine esterase ex vivo), read-out: Therapeutic Ratio (LD/AC); for LD50 at 6 h: sub-cutaneous, mice, within 6 hours
Method: Drugs were administered sub-cutaneously in at least 3 doses, to a minimum of 10 mice per dose. […] Therapeutic Ratio was calculated as LD50 divided by ED50(acetylcholine esterase ex vivo).

T1 sequence (P22303 32-617 isoform P22303-2 limits assumed): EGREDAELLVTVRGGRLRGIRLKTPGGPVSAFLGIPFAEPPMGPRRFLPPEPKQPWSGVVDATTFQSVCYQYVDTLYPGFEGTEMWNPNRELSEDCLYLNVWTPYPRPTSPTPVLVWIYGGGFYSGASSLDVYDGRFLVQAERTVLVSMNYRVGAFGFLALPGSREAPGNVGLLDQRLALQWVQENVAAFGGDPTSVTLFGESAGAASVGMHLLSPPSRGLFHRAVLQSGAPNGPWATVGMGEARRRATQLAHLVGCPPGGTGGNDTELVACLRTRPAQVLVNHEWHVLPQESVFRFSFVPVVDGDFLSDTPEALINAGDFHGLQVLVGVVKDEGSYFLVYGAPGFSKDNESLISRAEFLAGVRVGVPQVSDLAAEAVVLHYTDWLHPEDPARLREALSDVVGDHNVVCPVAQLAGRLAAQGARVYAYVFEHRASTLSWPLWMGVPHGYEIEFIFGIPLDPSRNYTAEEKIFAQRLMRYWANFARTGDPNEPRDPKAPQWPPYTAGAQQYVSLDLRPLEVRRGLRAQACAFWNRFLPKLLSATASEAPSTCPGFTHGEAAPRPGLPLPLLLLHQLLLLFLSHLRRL

With `C#CCNC(C)Cc1cccc(OC(=O)N(C)CCC)c1` (racemic) [Compound 19, (rac)-3-(N-methyl,N-propyl-carbamyloxy)-α-methyl-N'-propargyl phenethylamine HCl] as the compound, how does the pIC50 [1] read?
Its pIC50 is 4.70.

What about the “MAO-B Inhibition Ex vivo ED50” value [2] of the same compound?
The value was 1.5 µmol/kg.

What about the “Protection (% of control)” value ([3]; 25 mg/kg sc, 60 min before hypoxia) of the same compound?
Its value is 169±50 % of control.

And the “Protection (% of control)” value ([3]; 50 mg/kg sc, 60 min before hypoxia)?
The value was 309±253 % of control.

What about the “Protection (% of control)” value ([3]; 75 mg/kg sc, 60 min before hypoxia) of the same compound?
Its value is 773±228 % of control.

And the pIC50 [4]?
Its pIC50 is 4.84.

And the “Time to peak activity t” value ([5]; AChE inhibition)?
Its value is 30 to 60 min.

And the ED50 [5]?
Its ED50 is 170 µmol/kg.

And the “MAO-A Inhibition Ex vivo ED50” value [6]?
Its value is >70 µmol/kg.

And the selectivity ratio [7]?
The selectivity ratio was 7.6.

And the LD50 at 6 h [7]?
Its LD50 at 6 h is 1300 µmol/kg.

With `C#CCN(C)C(C)Cc1cccc(OC(=O)N(C)CCCCCC)c1` (racemic) [Compound 27, (rac)-3-(N-methyl,N-hexyl-carbamyloxy)-α-methyl-N'-methyl, N'-propargyl phenethylamine mesylate] as the compound, how does the pIC50 [1] read?
The pIC50 was 5.51.

And the “MAO-B Inhibition Ex vivo ED50” value [2]?
Its value is 3.4 µmol/kg.

And the pIC50 [4]?
Its pIC50 is 4.70.

And the ED50 [5]?
Its ED50 is > 50 µmol/kg.

What about the “MAO-A Inhibition Ex vivo ED50” value [6] of the same compound?
Its value is >430 µmol/kg.

And the LD50 at 6 h [7]?
Its LD50 at 6 h is > 1000 µmol/kg.

With `C#CCN(C)C(C)Cc1cccc(OC(=O)N(C)C2CCCCC2)c1` (racemic) [Compound 28, (rac)-3-(N-methyl,N-cyclohexyl-carbamyloxy)-α-methyl-N'-methyl, N'-propargyl phenethylamine HCl] as the compound, how does the pIC50 [1] read?
The pIC50 was 4.94.

And the “MAO-B Inhibition Ex vivo ED50” value [2]?
Its value is 1.75 µmol/kg.

And the pIC50 [4]?
The pIC50 was 5.77.

What about the “Time to peak activity t” value ([5]; AChE inhibition) of the same compound?
The value was 60 min.

And the ED50 [5]?
Its ED50 is 21 µmol/kg.

What about the “MAO-A Inhibition Ex vivo ED50” value [6] of the same compound?
The value was 109 µmol/kg.

And the selectivity ratio [7]?
Its selectivity ratio is > 47.

What about the LD50 at 6 h [7] of the same compound?
The LD50 at 6 h was 2000 µmol/kg.

Which results are given for `C#CCN(C)C(C)Cc1cccc(OC(=O)N(C)CCC)c1` (racemic) [Compound 35]?
pIC50 [1]: 4.30; ED50 [5]: > 200 µmol/kg

Which results are given for `CN(C)C(=O)Oc1cccc(CCN)c1` [Compound 1]?
pIC50 [1]: 6.51; pIC50 [4]: 4.00

Which results are given for `CNCCc1cccc(OC(=O)N(C)C)c1` [Compound 3]?
pIC50 [1]: 6.51; pIC50 [4]: 4.30; Time to peak activity t ([5]; AChE inhibition): 10 min; Time to return to 50% of peak t ([5]; AChE inhibition): 30 min; ED50 [5]: 39.2 µmol/kg; selectivity ratio [7]: 1.5; LD50 at 6 h [7]: 57.7 µmol/kg

Which results are given for `CCN(C)C(=O)Oc1cccc(CCN)c1` [Compound 4]?
pIC50 [1]: 4.32; pIC50 [4]: 3.70

What does the source list for `CCN(C)C(=O)Oc1cccc(CCNC)c1` [Compound 5]?
pIC50 [1]: 4.68; MAO-B Inhibition Ex vivo ED50 [2]: >>160 µmoles/kg; pIC50 [4]: 4.60; MAO-A Inhibition Ex vivo ED50 [6]: >>160 µmoles/kg

With `CN(C)CCc1cccc(OC(=O)N(C)C)c1` [Compound 10] as the compound, how does the pIC50 [1] read?
The pIC50 was 6.70.

And the pIC50 ([4]; read-out: MAO-A Inhibition In vitro IC50, rat brain homogenate, 5-HT 1mM)?
The pIC50 was 4.29.

What about the “Time to peak activity t” value ([5]; AChE inhibition) of the same compound?
Its value is 15 to 30 min.

And the ED50 [5]?
Its ED50 is 2 µmol/kg.

What about the selectivity ratio [7] of the same compound?
The selectivity ratio was 8.

What about the LD50 at 6 h [7] of the same compound?
The LD50 at 6 h was 16 µmol/kg.

With `C#CC(C)NCCc1cccc(OC(=O)N(C)C)c1` (centres unmarked) [Compound 29] as the compound, how does the pIC50 [1] read?
Its pIC50 is 6.82.

What about the “MAO-B Inhibition Ex vivo ED50” value [2] of the same compound?
Its value is >>12.5 µmoles/kg.

And the ED50 [5]?
The ED50 was 2.5 µmol/kg.

And the “MAO-A Inhibition Ex vivo ED50” value [6]?
Its value is >>12.5 µmoles/kg.

With `C#CC(C)NCCc1cccc(OC(=O)N(C)CC)c1` (centres unmarked) [Compound 30] as the compound, how does the pIC50 [1] read?
Its pIC50 is 4.85.

What about the “MAO-B Inhibition Ex vivo ED50” value [2] of the same compound?
The value was >>270 µmoles/kg.

And the ED50 [5]?
The ED50 was 45 µmol/kg.

What about the “MAO-A Inhibition Ex vivo ED50” value [6] of the same compound?
Its value is >>270 µmoles/kg.

With `C#CCNC(C)Cc1cccc(OC(=O)N(C)C2CCCCC2)c1` (centres unmarked) [Compound 36] as the compound, how does the pIC50 [1] read?
Its pIC50 is 5.47.

What about the ED50 [5] of the same compound?
The ED50 was > 50 µmol/kg.

With `C#CCN(C)[C@@H](C)Cc1cccc(OC(=O)N(C)CCCCCC)c1` [Compound 38, (S)-3-(N-methyl, N-hexyl-carbamyloxy)-α-methyl-N'-methyl,N'-propargyl phenethylamine ethanesulfonate] as the compound, how does the pIC50 [1] read?
The pIC50 was 5.51.

And the ED50 [5]?
Its ED50 is > 50 µmol/kg.

For `CN1C(=O)CN=C(c2ccccc2)c2cc(Cl)ccc21` [Diazepam, diazepam, reference compound], which “Protection (% of control)” value ([3]; 10 mg/kg, 30 min before hypoxia) is on record?
The value was 316±78 % of control.

With `CCCC(C)C1(CC)C(=O)NC(=O)NC1=O` (centres unmarked) [Nembutal, sodium pentobarbital, reference compound] as the compound, how does the “Protection (% of control)” value ([3]; 40 mg/kg, 30 min before hypoxia) read?
Its value is 253±200 % of control.

Source: EP0951284B1, “[…] DERIVATIVES” (priority 1996, dated 1998)
